Laboratory results from paper doi:10.1101/2025.10.10.681657 (bioRxiv, 2025).
“Also recorded” adds a separate entry of the source.

T1: Snu13 (yeast (species ), UniProt P39990 1-126)
T1 sequence: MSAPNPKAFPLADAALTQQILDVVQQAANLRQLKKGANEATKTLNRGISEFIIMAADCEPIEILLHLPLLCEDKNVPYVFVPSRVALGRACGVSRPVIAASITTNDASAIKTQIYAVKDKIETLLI

B1: U4/U6 snRNA 92 nt construct (structured_RNA)
RNA: GGCCUUAUGCACGGGAAAUACGCAUAUCAGUGAGGAUUCGUCCGAGAUUGUGUUUUUGCUGGUGUAAAUCAGCAGUUCCCCUGCAUAAGGCU

Assays:
[1] = tested on: NHP2L1 (Snu13) and U4 5′ SL; parameters: method as in PMID 28985478; conditions: cited from earlier work
[2] = tested on: U4U6 RNA for SHAPE-MaP (T7 transcript of Template) (RNA, junction) GGGCCUUCGGGCCAAGGCCUUAUGCACGGGAAAUACGCAUAUCAGUGAGGAUUCGUCCGAGAUUGUGUUUUUGCUGGUGUAAAUCAGCAGUUCCCCUGCAUAAGGCUUCGAUCCGGUUCGCCGGAUCCAAAUCGGGCUUCGGUCCGGUUC; experiment: SHAPE-MaP (2A3); conditions: KCl (3.3x folding buffer: 1023 mM); potassium phosphate pH 7.0, EDTA; 100 μM compound
[3] = biological target: U4/U6 snRNA construct (92 nt); experiment: SPR binding to U4/U6 snRNA construct (92 nt); parameters: species or system yeast; conditions: 92 nt RNA, steady-state fit; >100 = signal appeared at 100 μM but failed to fit
Protocol: (§1) SPR experiments were carried out using an SPR optical biosensor (BIAcore 3000, Cytiva, USA) based on reported methods with minor modifications.[35] To avoid RNA degradation during long-time injections, the whole microfluidic system was washed by priming 50% RNase Zap buffer and RNase-free water one day before the experiments. Then, by using running buffer (1xPBS, pH7.4, 0.005% Tween 20, 5% DMSO) at a flow rate of 5 μL/min, the binding assays were performed. In brief, a CM5 chip surface coated with carboxylated dextran was activated by standard EDC/NHS amine-coupling protocol and then conjugated with streptavidin (200 ng/mL in 10 mM sodium acetate buffer, pH 4.5) for 30 min, resulting in 4000~6000 response units (RUs) signal. After streptavidin conjugation, the surface was deactivated (1 M ethanolamine, pH 8.5) for 10 min and regenerated (10 mM NaOH) for 2 min to remove unbound SA. Then, the folded U4/U6 RNA with biotin-label at 5′ end was prepared (according to the above-mentioned method) at 5 μM and injected in flow-cell (Fc) 2 for 30 min while Fc1 was kept blank as a reference. Then, the system continued flowing the running buffer until the baseline was stable before future steps.
To detect binding between small molecules and U4/U6 snRNA, a 50 μL compound solution was applied to both Fc1 and Fc2 channels simultaneously at a higher flow rate (25 μL/min). The binding curve contains 120 s association and 200 s dissociation. A pulse of 10 mM NaOH injection was used for regeneration if needed. To measure the dissociation constant (KD), titrations of compound solutions with a serial dilution were applied. The KD value was then calculated by fitting the binding curves based on a steady-state model in BIAevaluation 4.0 software and plotted in GraphPad Prism 9.

[4] = tested on: U4/U6 snRNA construct 32 nt (No. 4), Cy5 (RNA, hairpin) CGCAUAUCAGUGAGGAUUCGUCCGAGAUUGUG; experiment: small molecule microarray; conditions: 1x PBS; pH 7.4, 0.005% Tween 20; 50 nM RNA; immobilised compound; Z-score cutoff 3
[5] = tested on: U4/U6 snRNA construct 68 nt (No. 3), Cy5 (RNA, junction) GGGAAAUACGCAUAUCAGUGAGGAUUCGUCCGAGAUUGUGUUUUUGCUGGUGUAAAUCAGCAGUUCCC; experiment: small molecule microarray; conditions: 1x PBS; pH 7.4, 0.005% Tween 20; 50 nM RNA; immobilised compound; Z-score cutoff 3
[6] = tested on: U4/U6 snRNA construct 92 nt (WT, No. 1), Cy5 (RNA, junction) GGCCUUAUGCACGGGAAAUACGCAUAUCAGUGAGGAUUCGUCCGAGAUUGUGUUUUUGCUGGUGUAAAUCAGCAGUUCCCCUGCAUAAGGCU; experiment: small molecule microarray; conditions: 1x PBS; pH 7.4, 0.005% Tween 20; 50 nM RNA; immobilised compound; Z-score cutoff 3
[7] = tested on: U4/U6 snRNA construct 79 nt (No. 2, K-turn disrupted), Cy5 (RNA, junction) GGCCUUAUGCACGGGAAAUACGCAUAUCGUAAGAUUGUGUUUUUGCUGGUGUAAAUCAGCAGUUCCCCUGCAUAAGGCU; experiment: small molecule microarray; conditions: 1x PBS; pH 7.4, 0.005% Tween 20; 50 nM RNA; immobilised compound; Z-score cutoff 3
[8] = tested on: K-turn-containing RNAs (92 nt, 68 nt, and 32 nt); experiment: SMM screening, K-turn-containing RNAs; format: binding, yeast; conditions: Z-score cutoff 3
Protocol: (§2) For high-throughput screening using SMM, the microarray slides were prepared based on previously reported methods using a robotic microarray printer (Arrayjet, UK).[34] Each slide contained ~7,000 compounds with duplicate spots of each sample. To perform screening, the SMM slide surface was first blocked with 500 nM yeast total tRNA (Invitrogen) in screening buffer (1xPBS, pH 7.4, 0.005% Tween 20) for 2 h prior to target RNA incubation. Then, the 5′-Cy5-labeled U4/U6 RNA construct was folded as above described, followed by buffer exchange to screening buffer. After annealing, the RNA was diluted to 50 nM in screening buffer and incubated with the microarray for another 2 h. After that, the glass slide was gently washed with PBST, PBS, and ddH2O three times in each buffer solution and dried in a centrifuge at 1,700 g for 2 min. Finally, the microarray was imaged with an InnoScan 1100 AL fluorescence scanner (Innopsys, France) at 635 nm and the hits were identified based on the quantified fluorescent intensity of each spot.

[9] = tested on: U4/U6 snRNA construct 92 nt (WT, No. 1) (RNA, junction) GGCCUUAUGCACGGGAAAUACGCAUAUCAGUGAGGAUUCGUCCGAGAUUGUGUUUUUGCUGGUGUAAAUCAGCAGUUCCCCUGCAUAAGGCU; experiment: SPR steady state; conditions: 1x PBS; pH 7.4, 0.005% Tween 20, 5% DMSO
[10] = tested on: 79 nt RNA (lacking the K-turn); experiment: SMM screening, 79 nt RNA; format: binding, yeast; conditions: Z-score cutoff 3
Protocol: as §2

[11] = tested on: U4/U6 snRNA construct 92 nt (WT, No. 1), unlabeled (RNA, junction) GGCCUUAUGCACGGGAAAUACGCAUAUCAGUGAGGAUUCGUCCGAGAUUGUGUUUUUGCUGGUGUAAAUCAGCAGUUCCCCUGCAUAAGGCU; experiment: CD melting (260 nm); conditions: PBS; 5 μM RNA, 100 μM compound, 5% DMSO
[12] = tested on: U4/U6 snRNA construct 79 nt (No. 2, K-turn disrupted) (RNA, junction) GGCCUUAUGCACGGGAAAUACGCAUAUCGUAAGAUUGUGUUUUUGCUGGUGUAAAUCAGCAGUUCCCCUGCAUAAGGCU; experiment: SPR; conditions: 1x PBS; pH 7.4, 0.005% Tween 20, 5% DMSO; no binding up to 50 μM
[13] = tested on: U4/U6 snRNA construct 92 nt (WT, No. 1), Cy5 (RNA, junction) GGCCUUAUGCACGGGAAAUACGCAUAUCAGUGAGGAUUCGUCCGAGAUUGUGUUUUUGCUGGUGUAAAUCAGCAGUUCCCCUGCAUAAGGCU; experiment: MST (T-jump, 1:1 fit); conditions: running buffer, 5% DMSO, 50 nM RNA
[14] = tested on: Snu13-U4/U6 RNA interaction; experiment: EMSA of Snu13-U4/U6 RNA complex; format: biochemical, yeast; conditions: 1 μM Snu13, compound 0.5 to 20 μM, gel band quantification; read-out: IC50 (RNA-protein complex formation)
Protocol: The 5′-end Cy5 labeled U4U6 RNA in 11.25 mM KPO4 pH 7.0, 310 mM KCl, and 5 mM EDTA was folded based on the above-mentioned method. The folded RNA was incubated with 1 μM Snu13 protein in the buffer containing 20 mM Tris-Cl pH 7.6, 150 mM NaCl, and 0.1% of Triton X-100 and 2 mM DTT for 30 min at room temperature. Then the compound (0.5 μM to 20 μM) was added to the samples and incubated at room temperature for 15 min. The samples were loaded into the 8% native PAGE gel and visualized by AMERSHAM TYPHOON Biomolecular Imager. Image J software was used for image processing. RNA-protein complex formation in the presence of increasing concentration of compound 22 was calculated by quantifying the higher molecular weight band intensity and normalized to the band intensity of RNA-protein complex in the absence of compound. Values reported are the average of three replicates. The half-maximal inhibitory concentration (IC50) was determined by fitting the data in inhibitor dose–response curves in GraphPad Prism 9. Quantitative data were presented as the mean ± SEM.

[15] = tested on: Snu13-U4/U6 RNA interaction; experiment: KD shift assay by MST (protein-RNA inhibition); format: binding, yeast; conditions: 10 μM compound vs no compound
Protocol: (§3) MST experiments were conducted using a Monolith NT.115 system (NanoTemper, Germany) as described previously.[36] 5′-Cy5-labeled U4/U6 RNA was folded as above-mentioned and diluted to 100 nM (2x) in a working buffer. For RNA-small molecule interactions, compounds were prepared in the running buffer (with 10% DMSO) and mixed with RNA in a 1:1 (v/v) ratio, resulting in 50 nM RNA and 5% DMSO in the final solution. Then, MST scanning was performed in triplicate using a red LED channel to obtain the binding signals. Binding affinity (KD) was determined by fitting the concentration-dependent curve in the T-jump region according to the 1:1 Langmuir binding model (MO.Affinity Analysis v2.3).
For the protein-RNA inhibition assay, Snu13 protein was prepared in the running buffer (10 mM HEPES, pH 7.4, 150 mM NaCl, and 0.005% Tween 20) at different concentrations ranging from 0 μM to 5 μM. Meanwhile, a compound at a designated concentration was added to the annealed RNA solution. Then, the test solutions were prepared by 1:1 (v/v) mixing the protein and RNA-small molecule samples, followed by the standard MST procedure mentioned above.

[16] = tested on: U4/U6 snRNA construct 92 nt (WT, No. 1), Cy5 (RNA, junction) GGCCUUAUGCACGGGAAAUACGCAUAUCAGUGAGGAUUCGUCCGAGAUUGUGUUUUUGCUGGUGUAAAUCAGCAGUUCCCCUGCAUAAGGCU; experiment: EMSA; conditions: 150 mM NaCl; 20 mM Tris-Cl pH 7.6, 0.1% Triton X-100, 2 mM DTT; 1 μM Snu13 protein displaced
[17] = tested on: U4/U6 79-nt snRNA construct; experiment: SPR binding test with 79 nt RNA lacking the K-turn; parameters: species or system yeast; conditions: 79 nt RNA that disrupts the 5′ SL; until 50 μM
Protocol: as §1, with “Then, the folded U4/U6 RNA with biotin-label at 5′ end was prepared (according to the above-mentioned method) at 5 μM and injected in flow-cell (Fc) 2 for 30 min while Fc1 was kept blank as a reference. Then, the system continued flowing the running buffer until the baseline was stable before future steps.” left out
To detect binding between small molecules and U4/U6 snRNA, a 50 μL compound solution was applied to both Fc1 and Fc2 channels simultaneously at a higher flow rate (25 μL/min). […] The KD value was then calculated by fitting the binding curves based on a steady-state model in BIAevaluation 4.0 software and plotted in GraphPad Prism 9.

[18] = tested on: U4U6 RNA for SHAPE-MaP (T7 transcript of Template) (RNA, junction) GGGCCUUCGGGCCAAGGCCUUAUGCACGGGAAAUACGCAUAUCAGUGAGGAUUCGUCCGAGAUUGUGUUUUUGCUGGUGUAAAUCAGCAGUUCCCCUGCAUAAGGCUUCGAUCCGGUUCGCCGGAUCCAAAUCGGGCUUCGGUCCGGUUC; experiment: SHAPE-MaP / deltaSHAPE (2A3); conditions: KCl (3.3x folding buffer: 1023 mM); potassium phosphate pH 7.0, EDTA; 100 μM compound
[19] = biological target: U4/U6 92-nt RNA construct; experiment: MST binding to U4/U6 92-nt RNA; parameters: species or system yeast; conditions: 50 nM Cy5-labeled 92-nt RNA
Protocol: as §3

Snu13 = biological target: T1, Snu13; experiment: MST; no compound; 50 nM RNA; MST: 10 mM HEPES pH 7.4, 150 mM NaCl, 0.005% Tween 20, 50 nM RNA (protein buffer, mixed 1:1 with RNA); EMSA: 20 mM Tris-Cl pH 7.6, 150 mM NaCl, 0.1% Triton X-100, 2 mM DTT, room temperature, 8% native PAGE; RNA folded in 11.25 mM K-phosphate pH 7.0, 310 mM KCl, 5 mM EDTA; conditions: label: 5'-Cy5; folded single strand; three-way junction, U4 5' stem-loop with 5x2 internal loop (K-turn)

Row | Molecule | Kd [3] | binding [4] | binding [5] | binding [6] | binding [7] | SMM binding signal [8] | KD [9] | SMM binding signal [10] | ΔTm [11] | further results
1 | CC[C@@]1(O)C(=O)OCc2c1cc1n(c2=O)Cc2cc3c(CN(C)C)c(O)ccc3nc2-1 [topotecan] |  |  |  |  |  |  |  |  |  | effect on NHP2L1-U4 5′ SL interaction [1]: inhibit the interaction; also recorded: disrupts the binding
2 | Cc1ccc(-n2ncc3c(NCCCN(C)C)ncnc32)cc1Cl [Compound 1] | 50.3 ± 1.3 µM | yes | yes | yes | no | positive binding signals | 50.3 ± 1.3 µM | negative results | -1.5 ± 0.5 °C | binding [2]: yes
3 | CN(C)CCNc1nnc(-c2nc(-c3ccc(F)cc3)no2)c2ccccc12 [Compound 22] | 3.9 ± 2.2 µM |  |  |  |  |  | 3.9 ± 2.2 µM |  |  | binding [12]: no; KD [13]: 9.1 ± 0.6 µM; IC50 [14]: 3.2 ± 0.4 µM; fold weaker Snu13 affinity [15]: 13 fold; IC50 [16]: 3.2 ± 0.4 µM; SPR binding to 79 nt RNA [17]: did not show any binding; binding [18]: yes; Kd [19]: 9.1 ± 0.6 µM
4 | CCc1nnc(-c2nnc(NCCCN(C)C)c3ccccc23)o1 [Compound 2] | 30.5 ± 8.4 µM | yes | yes | yes | no | positive binding signals | 30.5 ± 8.4 µM | negative results | +3.3 ± 0.3 °C | 
5 | B1 |  |  |  |  |  |  |  |  |  | Kd (Snu13): 0.062 ± 0.004 µM
